In US8207136B2, “Nucleoside compounds and methods of use thereof” (The Board of Trustees of the University of Illinois, priority 2005, dated 2012):

Columns and labels:
Akt = Akt Ser473 phosphorylation immunoblot in mAkt-overexpressing cells; type: cell-based; settings: Rat1a-mAkt and MCF7-mAkt cells, 24 hours
Method: FIG. 9. ARC interferes with the Akt pathway by inhibiting phosphorylation of Akt. Rat1a and MCF-7 cells overexpressing myristoylated-Akt (mAkt) were treated with the indicated concentration of ARC for 24 hours, after which the cell lysates were used for immunoblotting with total and phospho-Ser473 specific Akt antibodies.
Another survival pathway that protects mitochondrial integrity is the Akt (AKT8 virus oncogene cellular homolog) pathway. In order to see if this pathway is affected, two different cell lines that overexpress myrisotylated-Akt (Rat1a-mAkt, and MCF7-mAkt) were used. Myristolated-Akt is a membrane-targeted Akt, a kinase involved in anti-apoptotic signaling.

p53 = assay: Gel shift assay with nuclear extracts and p53 consensus probe; type: cell-based, human
Method: Either purified p53 protein or nuclear extracts were used in the gel shift assays. For preparation of nuclear extracts, cells treated either with DMSO or different agents (doxorubicin, ARC and actinomycin D) were harvested 24 hours later and lysed in hypotonic buffer (10 mM HEPES pH 7.9, 1.5 mM MgCl2, 10 mM KCl, 0.2 mM PMSF, 0.5 mM DTT, 1 mM Na3VO4, 1 mM NaF, 1 mM Aprotinin and 1 mM Leupeptin), nuclei pelleted and treated with high-salt buffer (20 mM HEPES pH 7.9, 20% (v/v) glycerol, 1.5 mM MgCl2, 0.5 M KCl, 0.2 mM EDTA, 0.2 mM PMSF, 0.5 mM DTT, 1 mM Na3VO4, 1 mM NaF, 1 mM Aprotinin and 1 mM Leupeptin). Nuclear extracts (10 μg) or purified p53 protein (100 ng) were incubated with 0.5 ng of p53 consensus double-stranded oligos (5′-TACAGAACATGTCTAAGCATGCTGGGGACT-3′; Santa Cruz Biotechnology) that were labeled with [γ^32P]ATP. As a control, anti-p53 antibody (PAb421, EMD Biosciences) was used to supershift the p53/DNA complex. The reaction mixtures were resolved on a 4% acrylamide DNA-retardation gel, dried and exposed to X-ray film in the presence of intensifying screen.
Although the effects of ARC were p53-independent, ARC did affect some properties of p53. […] This is in contrast to actinomycin D, which is known to enhance the DNA binding ability of p53 [22]. […] To determine if ARC retains p53 in the cytoplasm, which may lead to decreased binding in the gel shift assays, p53 levels in nuclear lysates were examined.

[1] = tested on: HIV Tat-mediated transcription; assay: HIV Tat-mediated transcription in HeLa MAGI cells; type: cell-based, human immunodeficiency virus (HIV); settings: 18 hours
Method: FIG. 10. ARC has antiviral activity against HIV (human immunodeficiency virus) in a cell culture model. HeLa MAGI cells were infected with Adeno-Tat and treated with different amounts of ARC for 18 hours after which, MTT was added to measure cell viability and B-Gal expression was measured by ONPG assay. B-Gal expression is indicative of HIV Tat transactivation ability. Assays were done in quadruplicates.

p21 promoter = assay: p21 promoter-lacZ reporter screen in LIM1215 colon carcinoma cells; type: cell-based, human; settings: 10 μM, 24 hours
Method: LIM1215 colon carcinoma cells harboring the lacZ reporter gene under the control of a 2.3 kb p21 promoter (containing two p53 binding sites) were grown in 96-well plates. Diversity set, a chemical compound library containing approximately 2000 compounds (dissolved in DMSO), was obtained from the National Cancer Institute (NCI) and was used at a final concentration of 10 μM on the cells for 24 hours. lacZ encoded β-Gal was detected by X-Gal staining as described previously.
(§1) In order to find small molecule transcriptional inhibitors of p21, we generated LIM1215 colon cancer cells, carrying lacZ under the control of p21 promoter, as a screening system for testing ˜2000 structurally diverse compounds (Diversity Set) obtained from National Cancer Institute (NCI). […] To determine if these effects mediated by ARC were dose-dependent, we treated HCT-116 colon carcinoma cells with different concentrations of ARC.

p53, p21, hdm2, survivin = assay: Immunoblot of p53, p21, hdm2 and survivin levels in cancer cell lines; type: cell-based, human
Method: Immunoblotting was performed as described with antibodies specific for p53 (sc-126 HRP; Santa Cruz), hdm2 (sc-965; Santa Cruz), p21 (556431; BD Pharmingen), Sp1 (sc-59; Santa Cruz), survivin (sc-10811; Santa Cruz), phospho RNA polymerase II (4735; Cell Signaling), total RNA polymerase II (8WG16; a gift from Dr. Schlegel, University of Illinois at Chicago), α-tubulin (T9026; Sigma), cleaved caspase-3 (9664; Cell Signaling), caspase-9 (9502; Cell Signaling) and β-actin (A5441; Sigma) antibodies.
as §1
In order to evaluate the extent to which the ARC-mediated repression of p21, hdm2 and survivin are p53-dependent, a pair of isogenic colon cancer cell lines was employed differing only in their p53 status—HCT-116 wild-type and HCT-116-p53^−/− cells (gift from Dr. Bert Vogelstein).

[2] = tested on: LIM1215 colon cancer cells; assay: Apoptosis by PI staining and flow cytometry in LIM1215 cells; type: cell-based, human
Method: For Flow Cytometry, cells were fixed in 70% ethanol and stored at −20° C. until further analysis. Equal numbers of fixed cells were then stained with PI solution (0.1% Triton X-100, 0.2 mg/ml DNase free RNase, 0.02 mg/ml propidium iodide) made in PBS for 15 min at 37° C. and analyzed by a flow cytometer.
In order to evaluate the extent to which ARC induces apoptosis relative to that of the other known nucleoside analog DRB, LIM1215 colon cancer cells were treated with either ARC or DRB for 48 hours.

[3] = cancer cell lines of different origin, 10 μM, 24 hours

NNc1c(C(N)=O)c2c(N)ncnc2n1[C@@H]1O[C@H](CO)[C@@H](O)[C@H]1O [ARC, 4-amino-6-hydrazino-7-beta-D-ribofuranosyl-7H-pyrrolo[2,3-d]-pyrimidine-5-carboxamide]
Ser473 phosphorylation on Akt (Akt): decrease in Ser473 phosphorylation on Akt | DNA binding ability of p53, agent alone (p53; MCF-7 nuclear extracts): did not influence the DNA binding ability of p53 | doxorubicin-induced DNA binding ability of p53 (p53; nuclear extracts from HCT-116 and MCF-7 cells, with doxorubicin): inhibited the doxorubicin-induced DNA binding ability of p53 | HIV Tat-mediated transcription (B-Gal expression) ([1]; HeLa MAGI cells infected with Adeno-Tat): efficiently inhibited HIV Tat-mediated transcription in a dose-dependent manner | rate of transcription versus cell viability (MTT) ([1]; HeLa MAGI cells): affected more than the viability of cells | p21 promoter driven β-Gal expression (p21 promoter): inhibit p21 promoter | p21, hdm2 and survivin levels, p53 dependence (p53, p21, hdm2, survivin; HCT-116-p53+/+ versus HCT-116-p53−/− cells): repressed irrespective of their p53 status | p53, p21 and hdm2 levels, dose dependence (p53, p21, hdm2, survivin; HCT-116 colon carcinoma cells, increasing amounts, 24 hours): increased p53 but simultaneously repressed its target genes p21 and hdm2 in a dose-dependent manner | p53 levels in nuclear extracts (p53, p21, hdm2, survivin; MCF-7 cells, ARC alone): highly induced | hdm2 levels (p53, p21, hdm2, survivin; [3]): downregulate hdm2 | p21 levels (p53, p21, hdm2, survivin; [3]): repress p21 levels | p53 levels (p53, p21, hdm2, survivin; [3]): increased p53 levels | survivin levels (p53, p21, hdm2, survivin; [3]): downregulate | apoptosis (PI staining, flow cytometry) ([2]; 5 μM, 48 hours): 37.8% | efficiency in inducing apoptosis relative to DRB ([2]; LIM1215 cells (FIG. 5F)): > 10 fold
